Source: publication PMC11501026, “L-Arginine and asymmetric dimethylarginine (ADMA) transport across the mouse blood-brain and blood-CSF barriers: Evidence of saturable transport at both interfaces and CNS to blood efflux” (PLOS ONE, 2024)
“And” between values parts separate entries of the source, which are not always exact repeats. Identical values can stand only once. Counter-ions that a name gives are not always drawn. Like-named read-outs stand apart in the source and are kept apart here.

Key:
[1] = self-inhibition, in situ perfusion: [^3H]-ADMA with 100 μM unlabelled ADMA; format: in vivo, mouse; settings: male, BALB/c, mouse, other: in situ brain perfusion, with unlabelled ADMA 100 µM, 10 mins, Balb/c ♂, 5ml/min
Procedure: (§1) Self-inhibition experiments were also performed. […] Cross-competition experiments were also performed.
(§2) The percentage change in the RTissue uptake values achieved in the absence or presence of an unlabelled inhibitor can be calculated by means of Eq 4.
(§3) %change=RTissue−RInhibition/RTissue×100 Eq 4
(§4) We define RInhibition as the RTissue uptake in the presence of an inhibitor in the artificial plasma.
(§5) A decrease in the uptake of radiolabelled solute in the presence of unlabelled inhibitor is indicative of a saturable influx transport system. Conversely, an increase in the uptake of radiolabelled solute in the presence of unlabelled inhibitor is indicative of a saturable efflux transport system.

[2] = test system: [^3H]-ADMA transport across the blood-brain and blood-CSF barriers; experiment: as above; format: in vivo, mouse; settings: 100 μM unlabelled ADMA; CSF; 10 minutes; not statistically significant, n of 2
Procedure: as §1, §2, §3, §4, §5

[3] = test system: [^3H]-arginine transport across the blood-brain and blood-CSF barriers; experiment: cross-inhibition, in situ perfusion: [^3H]-arginine with 0.5–500 μM unlabelled ADMA; format: in vivo, mouse
Procedure: as §1, §2, §3, §4, §5
Concentrations of ADMA were specifically selected to mimic plasma concentrations under normal conditions (0.5 μM), pathophysiological conditions (3.0 μM), and then supraphysiological concentrations (10, 100 and 500 μM).

[4] = pH 7.4
Procedure: The lipophilicity of the radiolabelled test molecules was also measured by means of an octanol:saline partition coefficient. […] Centrifugation separated the hydrophobic (octanol) phase and hydrophilic (saline) phase and 100 μL samples in triplicate were taken for radioactive liquid scintillation counting on a Tricarb 2900TR liquid scintillation counter (Perkin-Elmer; Boston, MA, USA). The partition coefficient was calculated as the ratio of radioactivity in the octanol phase to the radioactivity in the aqueous phase.

CAT1 = settings: HEK293 overexpressing CAT1; read-out: IC50, inhibition of CAT1-mediated transport of L-arginine; cited from earlier work
eNOS = settings: read-out: inhibition constant (Ki); cited from earlier work
[5] = test system: human dermal microvascular endothelial cells; settings: cited from earlier work
[6] = in situ brain/choroid plexus perfusion: CNS uptake of [^3H]-arginine, [^3H]-ADMA and [^14C]-sucrose (multiple-time and single-time uptake analysis); settings: 5ml/min; for [3H] ADMA and [14C] Sucrose uptake, frontal cortex: in mL/100 g; for uptake into caudate nucleus / uptake into choroid plexus / uptake into frontal cortex / uptake into occipital cortex: [3H] ADMA + [14C] Sucrose
Procedure: All animals used in procedures were adult male BALB/c mice (between 23 g and 25 g) sourced from Harlan Laboratories, Oxon, UK, unless otherwise stated.
Animals were weighed immediately before the administration of the anaesthetic to ensure correct dosage. Domitor® (medetomidine hydrochloride) and Vetalar® (ketamine) were both purchased from Harlan Laboratories (Cambridge, UK). All animals were terminally anaesthetised (2 mg/kg Domitor® and 150 mg/kg Vetalar® injected intraperitoneally), and a lack of self-righting and paw-withdrawal reflexes (as surrogate indicators of consciousness) thoroughly checked prior to and during all procedures. If needed, additional anaesthetic was administered via the same route. […] At the end of the in situ brain perfusion procedure the animal was killed by decapitated under non-recovery anaesthesia. Animals were heparinised with 100 units heparin (in 0.9% m/v NaCl(aq), Harlan Laboratories; Oxon, UK), administered via the intraperitoneal route prior to surgery.
The in situ brain/choroid plexus perfusion method is designed to directly perfuse the brain with artificial plasma via a cannula placed in the heart. Artificial plasma is prepared to mimic the ionic composition of blood, and transporter inhibitors can be added in known concentrations and delivered to the brain for defined periods of time.
The left ventricle of the heart was cannulated with a 25G x 10 mm butterfly-winged needle connected to the perfusion circuit. […] The right atrium of the heart was sectioned to allow outflow of the artificial plasma. […] Radiolabelled and unlabelled test molecules were infused into the inflowing artificial plasma for periods up to 30 minutes.
At the set perfusion time a CSF sample was taken by inserting a pulled glass micropipette connected to silicon tubing and a syringe into the cisterna magna. Gentle suction was applied, and CSF was withdrawn. Only clear CSF samples were processed and taken for analysis. Samples contaminated with blood were discarded. The animal was then decapitated and the brain removed. Specific brain samples including the circumventricular organs (CVOs) were taken using a Leica S4E L2 stereomicroscope (Leica; Buckinghamshire, UK). The brain samples included the frontal cortex, caudate nucleus, occipital cortex, hippocampus, hypothalamus, thalamus, pons and cerebellum. The CVOs included the choroid plexus, pituitary gland and pineal gland.
All samples (brain regions, capillary depletion brain homogenate, pellet and supernatant, CVOs, CSF and plasma samples) were solubilised in 0.5 mL tissue solubiliser (Solvable; Perkin-Elmer; Boston, MA, USA). After incubating the samples at room temperature for 48 h, 4 mL scintillation fluid (Lumasafe®; Perkin-Elmer; Boston, MA, USA) was added to each before vigorous vortexing.

[7] = 2.5 mins, Balb/c ♂, individual mouse
[8] = 30 mins, Balb/c ♂, individual mice
[9] = CONTROL, 10 mins, Balb/c ♂, mean

Kp at 10 min, 62.5 nM ([1]; caudate nucleus, Difference (ADMA minus Sucrose), caudate nucleus, + 100uM un-labelled ADMA, mean): 0.0707
Kp at 10 min, 62.5 nM ([1]; caudate nucleus, [3H] ADMA + [14C] Sucrose + 100uM un-labelled ADMA, mean, read-out: uptake into caudate nucleus): 0.102
Kp at 10 min, 62.5 nM ([1]; choroid plexus, Difference (ADMA minus Sucrose), choroid plexus, + 100uM un-labelled ADMA, individual mice): 0.47
Kp at 10 min, 62.5 nM ([1]; choroid plexus, Difference (ADMA minus Sucrose), choroid plexus, + 100uM un-labelled ADMA, mean): 0.458
Kp at 10 min, 62.5 nM ([1]; choroid plexus, [3H] ADMA + [14C] Sucrose + 100uM un-labelled ADMA, individual mice, read-out: uptake into choroid plexus): 0.617
Kp at 10 min, 62.5 nM ([1]; choroid plexus, [3H] ADMA + [14C] Sucrose + 100uM un-labelled ADMA, mean, read-out: uptake into choroid plexus): 0.627
Kp at 10 min, 62.5 nM ([1]; frontal cortex, Difference (ADMA minus Sucrose), frontal cortex, + 100uM un-labelled ADMA, mean): 0.0696
Kp at 10 min, 62.5 nM ([1]; frontal cortex, [3H] ADMA + [14C] Sucrose + 100uM un-labelled ADMA, mean, read-out: uptake into frontal cortex): 0.101
Kp at 10 min, 62.5 nM ([1]; hippocampus, Difference (ADMA minus Sucrose), hippocampus, + 100uM un-labelled ADMA, mean): 0.056
Kp at 10 min, 62.5 nM ([1]; hippocampus, [3H] ADMA + [14C] Sucrose + 100uM un-labelled ADMA, mean, read-out: uptake into hippocampus): 0.0817
Kp at 10 min, 62.5 nM ([1]; occipital cortex, Difference (ADMA minus Sucrose), occipital cortex, + 100uM un-labelled ADMA, individual mice): 0.0613
Kp at 10 min, 62.5 nM ([1]; occipital cortex, Difference (ADMA minus Sucrose), occipital cortex, + 100uM un-labelled ADMA, mean): 0.0767
Kp at 10 min, 62.5 nM ([1]; occipital cortex, [3H] ADMA + [14C] Sucrose + 100uM un-labelled ADMA, individual mice, read-out: uptake into occipital cortex): 0.0898
Kp at 10 min, 62.5 nM ([1]; occipital cortex, [3H] ADMA + [14C] Sucrose + 100uM un-labelled ADMA, mean, read-out: uptake into occipital cortex): 0.107
Kp at 10 min, 62.5 nM ([1]; pineal gland, Difference (ADMA minus Sucrose), pineal gland, + 100uM un-labelled ADMA, mean): 3.33
Kp at 10 min, 62.5 nM ([1]; pineal gland, [3H] ADMA + [14C] Sucrose + 100uM un-labelled ADMA, mean, read-out: uptake into pineal gland): 3.5
octanol-saline partition coefficient [4]: 0.00226±0.00006
[3H] ADMA and [14C] Sucrose uptake, choroid plexus [6, 7]: 1.245 and 0.8202 and 0.645 and 0.9198
[3H] ADMA and [14C] Sucrose uptake, frontal cortex [6, 7]: 0.1518 and 0.0919
Difference (ADMA minus Sucrose), caudate nucleus ([6]; 30 mins, Balb/c ♂, mean): 0.1018
Difference (ADMA minus Sucrose), choroid plexus ([6]; 30 mins, Balb/c ♂, mean): 0.4075
Difference (ADMA minus Sucrose), frontal cortex ([6]; 30 mins, Balb/c ♂, mean): 0.1041
Difference (ADMA minus Sucrose), caudate nucleus [6, 9]: 0.2407
Difference (ADMA minus Sucrose), cerebellum [6, 9]: 0.1615
Difference (ADMA minus Sucrose), choroid plexus [6, 9]: 2.6086
Difference (ADMA minus Sucrose), frontal cortex [6, 9]: 0.2494
Difference (ADMA minus Sucrose), hippocampus [6, 9]: 0.2174
Difference (ADMA minus Sucrose), hypothalamus [6, 9]: 0.3042
Difference (ADMA minus Sucrose), occipital cortex [6, 9]: 0.2252
Difference (ADMA minus Sucrose), pituitary gland [6, 9]: 1.829
Difference (ADMA minus Sucrose), pons [6, 9]: 0.2464
Difference (ADMA minus Sucrose), thalamus [6, 9]: 0.21
[3H] ADMA and [14C] Sucrose uptake, caudate nucleus [6, 9]: 0.2609
[3H] ADMA and [14C] Sucrose uptake, cerebellum [6, 9]: 0.1856
[3H] ADMA and [14C] Sucrose uptake, choroid plexus [6, 9]: 2.881
[3H] ADMA and [14C] Sucrose uptake, hippocampus [6, 9]: 0.2336
[3H] ADMA and [14C] Sucrose uptake, hypothalamus [6, 9]: 0.341
[3H] ADMA and [14C] Sucrose uptake, occipital cortex [6, 9]: 0.2471
[3H] ADMA and [14C] Sucrose uptake, pituitary gland [6, 9]: 1.982
[3H] ADMA and [14C] Sucrose uptake, pons [6, 9]: 0.2825
[3H] ADMA and [14C] Sucrose uptake, thalamus [6, 9]: 0.2291
[3H] ADMA and [14C] Sucrose uptake, frontal cortex [6, 9]: 0.273
uptake into caudate nucleus ([6]; 30 mins, Balb/c ♂, mean): 0.1344
uptake into choroid plexus ([6]; 30 mins, Balb/c ♂, mean): 0.5624
uptake into frontal cortex ([6]; 30 mins, Balb/c ♂, mean): 0.1398
uptake into occipital cortex ([6]; 30 mins, Balb/c ♂, mean): 0.139
Kp at […] ([6]; male, BALB/c, mouse, CSF, Difference (ADMA minus Sucrose), 2.5 mins, mean): 0.034
SMILES: CN(C)C(N)=NCCC[C@H](N)C(=O)O [ADMA, N^G,N^G-dimethylarginine dihydrochloride]
reduction of [^3H]-ADMA uptake [2]: 89.1%
effect on [^3H]-arginine distribution ([3]; 100 μM unlabelled ADMA, any of the samples analysed, 10 minutes): did not inhibit
inhibition of [^3H]-arginine distribution ([3]; 500 μM unlabelled ADMA, choroid plexus, 10 minutes): 72.6%
inhibition of [^3H]-arginine uptake ([3]; 500 μM unlabelled ADMA, each of the brain regions, 10 minutes): approximately 70%
inhibition of [^3H]-arginine distribution ([3]; 500 μM unlabelled ADMA, supernatant (brain parenchyma), 10 minutes): 72.0%
inhibition of [^3H]-arginine distribution ([3]; 500 μM unlabelled ADMA, whole brain homogenate, 10 minutes): 65.1%
effect on transport of [^3H]-arginine ([…]) across the blood-CNS barriers ([3]; 0.5–100 μM unlabelled ADMA): insensitive to inhibition
effect on [^3H]-arginine distribution ([3]; any concentration of unlabelled ADMA (0.5–500 μM), CSF, pineal gland and pituitary gland, 10 minutes): not affected
effect on [^3H]-arginine distribution ([3]; up to 500 μM unlabelled ADMA, cerebral capillary endothelial cells (pellet), 10 minutes): not affected
IC50 (CAT1): 758 µM
Ki (eNOS): 0.9 µM
effect on [^3H]-arginine transport ([5]; 100 μM unlabelled ADMA): significant inhibitory effect
effect on [^3H]-arginine transport ([5]; 2.5–10 μM ADMA): did not affect
Difference (ADMA minus Sucrose), choroid plexus [6, 7]: 0.4619 (2×) and 1.038 and 0.6787 and 0.7164
Difference (ADMA minus Sucrose), pineal gland [6, 7]: 0.0119 (2×) and 0.6055 and 0.1704 and 0.3775
Difference (ADMA minus Sucrose), caudate nucleus [6, 8]: 0.07868 and 0.2155 and 0.07884 and 0.04051 and 0.09553
Difference (ADMA minus Sucrose), choroid plexus [6, 8]: 0.4322 and 0.7701 and 0.2962 and 0.1895 and 0.3495
Difference (ADMA minus Sucrose), frontal cortex [6, 8]: 0.08507 and 0.2094 and 0.08399 and 0.04504 and 0.09711
Difference (ADMA minus Sucrose), occipital cortex [6, 8]: 0.09101 and 0.202 and 0.09058 and 0.04293 and 0.1128
Difference (ADMA minus Sucrose), pineal gland [6, 8]: 0.4361 and 1.061 and 0.1804 and 0.1286 and 0.2721
uptake into caudate nucleus [6, 8]: 0.09268 and 0.2487 and 0.1281 and 0.07499 and 0.1274
uptake into choroid plexus [6, 8]: 0.5413 and 0.9894 and 0.4672 and 0.3444 and 0.47
uptake into frontal cortex [6, 8]: 0.1003 and 0.2556 and 0.1339 and 0.07655 and 0.1326
uptake into occipital cortex [6, 8]: 0.1057 and 0.2389 and 0.1237 and 0.07486 and 0.1517
